Laboratory results published in patent US6481154B1, “Method of large-scale propagation of trees of genus Swietenia” (Sumitomo Forestry Co., Ltd., priority 2000, dated 2002).

Assays:
Format in all cases: cell-based
[1] = tested on: single shoots of Swietenia macrophylla; assay: Rooting of single shoots on modified B5 rooting medium
Experimental: A large number of shoots obtained in (4) are cut to single shoots, which were then transplanted to a rooting medium. […] Culturing temperature was 26±2° C. under illumination of fluorescent lamps for 16 hours per day (3,000 to 9,000 Lux).

[2] = tested on: single shoots of Swietenia macrophylla; assay: Rooting conditions (2): modified MS medium for 3 months
Experimental: (§1) A large number of shoots obtained in (4) were cut to single shoots which were cultured in the following procedures:
(2) The single shoots were cultured on a modified MS medium containing 0 to 10.0 mg/l of IBA for 3 months, while transplanting the shoots to a fresh medium of the same composition every month.
(§2) All the above (1)-(4) cultures were conducted under conditions wherein a temperature was 26±2° C., a humidity was 60 to 90% and a light intensity was 3,000 to 9,000 Lux. Further, all the modified media in the above (1)-(4) contained 2.8 g/l of gelright.

[3] = tested on: single shoots of Swietenia macrophylla; assay: Rooting conditions (4): modified B5, then modified MS, then modified B5, one month each
Experimental: as §1
(4) The single shoots were cultured on a modified B5 medium containing 0 to 10.0 mg/l of IBA for one month, then on a modified MS medium containing 0 to 10.0 mg/l of IBA for one month and further on a modified B5 medium containing 0 to 10.0 mg/l of IBA for one month.
as §2

O=C(O)CCCc1c[nH]c2ccccc12 [IBA, 3-indole butyric acid]
effectiveness for rooting ([1]; 2.5 mg/l of IBA): effective | single shoots rooted ([1]; 1.0 to 5.0 mg/l of IBA, one to two months after the start of culturing): 18.5% | Number of rooted single shoots ([1]; IBA 1.0 mg/l): 1/27 | Number of rooted single shoots ([1]; IBA 2.0 mg/l): 2/30 | Number of rooted single shoots ([1]; IBA 2.5 mg/l): 5/27 | Number of rooted single shoots ([1]; IBA 3.0 mg/l): 0/26 | Number of rooted single shoots ([1]; IBA 4.0 mg/l): 1/25 | Number of rooted single shoots ([1]; IBA 5.0 mg/l): 0/26 | Number of rooted single shoots ([1]; IBA 10.0 mg/l): 0/26 | Rooting rate (%) For first one month ([2]; IBA 0.1 mg/l): 0.0% | Rooting rate (%) For second one month ([2]; IBA 0.1 mg/l): 0.0% | Rooting rate (%) For third one month ([2]; IBA 0.1 mg/l): 0.0% | Withering rate (%) For first one month ([2]; IBA 0.1 mg/l): 0.0% | Withering rate (%) For second one month ([2]; IBA 0.1 mg/l): 69.2% | Withering rate (%) For third one month ([2]; IBA 0.1 mg/l): 84.6% | Rooting rate (%) For first one month ([2]; IBA 1.0 mg/l): 0.0% | Rooting rate (%) For second one month ([2]; IBA 1.0 mg/l): 3.8% | Rooting rate (%) For third one month ([2]; IBA 1.0 mg/l): 3.8% | Withering rate (%) For first one month ([2]; IBA 1.0 mg/l): 0.0% | Withering rate (%) For second one month ([2]; IBA 1.0 mg/l): 46.2% | Withering rate (%) For third one month ([2]; IBA 1.0 mg/l): 73.1% | Rooting rate (%) For first one month ([2]; IBA 2.0 mg/l): 0.0% | Rooting rate (%) For second one month ([2]; IBA 2.0 mg/l): 3.8% | Rooting rate (%) For third one month ([2]; IBA 2.0 mg/l): 11.5% | Withering rate (%) For first one month ([2]; IBA 2.0 mg/l): 0.0% | Withering rate (%) For second one month ([2]; IBA 2.0 mg/l): 30.8% | Withering rate (%) For third one month ([2]; IBA 2.0 mg/l): 76.9% | Rooting rate (%) For first one month ([2]; IBA 2.5 mg/l): 0.0% | Rooting rate (%) For second one month ([2]; IBA 2.5 mg/l): 13.3% | Rooting rate (%) For third one month ([2]; IBA 2.5 mg/l): 16.7% | Withering rate (%) For first one month ([2]; IBA 2.5 mg/l): 0.0% | Withering rate (%) For second one month ([2]; IBA 2.5 mg/l): 26.7% | Withering rate (%) For third one month ([2]; IBA 2.5 mg/l): 66.7% | Rooting rate (%) For first one month ([2]; IBA 3.0 mg/l): 0.0% | Rooting rate (%) For second one month ([2]; IBA 3.0 mg/l): 3.7% | Rooting rate (%) For third one month ([2]; IBA 3.0 mg/l): 11.1% | Withering rate (%) For first one month ([2]; IBA 3.0 mg/l): 0.0% | Withering rate (%) For second one month ([2]; IBA 3.0 mg/l): 55.6% | Withering rate (%) For third one month ([2]; IBA 3.0 mg/l): 70.4% | Rooting rate (%) For first one month ([2]; IBA 4.0 mg/l): 0.0% | Rooting rate (%) For second one month ([2]; IBA 4.0 mg/l): 0.0% | Rooting rate (%) For third one month ([2]; IBA 4.0 mg/l): 0.0% | Withering rate (%) For first one month ([2]; IBA 4.0 mg/l): 10.3% | Withering rate (%) For second one month ([2]; IBA 4.0 mg/l): 58.6% | Withering rate (%) For third one month ([2]; IBA 4.0 mg/l): 96.6% | Rooting rate (%) For first one month ([2]; IBA 5.0 mg/l): 0.0% | Rooting rate (%) For second one month ([2]; IBA 5.0 mg/l): 0.0% | Rooting rate (%) For third one month ([2]; IBA 5.0 mg/l): 0.0% | Withering rate (%) For first one month ([2]; IBA 5.0 mg/l): 46.2% | Withering rate (%) For second one month ([2]; IBA 5.0 mg/l): 76.9% | Withering rate (%) For third one month ([2]; IBA 5.0 mg/l): 100.0% | Rooting rate (%) For first one month ([2]; IBA 10.0 mg/l): 0.0% | Rooting rate (%) For second one month ([2]; IBA 10.0 mg/l): 0.0% | Rooting rate (%) For third one month ([2]; IBA 10.0 mg/l): 0.0% | Withering rate (%) For first one month ([2]; IBA 10.0 mg/l): 65.4% | Withering rate (%) For second one month ([2]; IBA 10.0 mg/l): 80.8% | Withering rate (%) For third one month ([2]; IBA 10.0 mg/l): 100.0% | Rooting rate (%) For first one month ([3]; IBA 0.1 mg/l): 0.0% | Rooting rate (%) For second one month ([3]; IBA 0.1 mg/l): 0.0% | Rooting rate (%) For third one month ([3]; IBA 0.1 mg/l): 0.0% | Withering rate (%) For first one month ([3]; IBA 0.1 mg/l): 84.6% | Withering rate (%) For second one month ([3]; IBA 0.1 mg/l): 88.5% | Withering rate (%) For third one month ([3]; IBA 0.1 mg/l): 100.0% | Rooting rate (%) For first one month ([3]; IBA 1.0 mg/l): 0.0% | Rooting rate (%) For second one month ([3]; IBA 1.0 mg/l): 0.0% | Rooting rate (%) For third one month ([3]; IBA 1.0 mg/l): 10.0% | Withering rate (%) For first one month ([3]; IBA 1.0 mg/l): 10.0% | Withering rate (%) For second one month ([3]; IBA 1.0 mg/l): 50.0% | Withering rate (%) For third one month ([3]; IBA 1.0 mg/l): 70.0% | Rooting rate (%) For first one month ([3]; IBA 2.0 mg/l): 0.0% | Rooting rate (%) For second one month ([3]; IBA 2.0 mg/l): 10.0% | Rooting rate (%) For third one month ([3]; IBA 2.0 mg/l): 10.0% | Withering rate (%) For first one month ([3]; IBA 2.0 mg/l): 0.0% | Withering rate (%) For second one month ([3]; IBA 2.0 mg/l): 40.0% | Withering rate (%) For third one month ([3]; IBA 2.0 mg/l): 50.0% | Rooting rate (%) For first one month ([3]; IBA 2.5 mg/l): 0.0% | Rooting rate (%) For second one month ([3]; IBA 2.5 mg/l): 30.0% | Rooting rate (%) For third one month ([3]; IBA 2.5 mg/l): 50.0% | Withering rate (%) For first one month ([3]; IBA 2.5 mg/l): 0.0% | Withering rate (%) For second one month ([3]; IBA 2.5 mg/l): 40.0% | Withering rate (%) For third one month ([3]; IBA 2.5 mg/l): 40.0% | Rooting rate (%) For first one month ([3]; IBA 3.0 mg/l): 0.0% | Rooting rate (%) For second one month ([3]; IBA 3.0 mg/l): 10.0% | Rooting rate (%) For third one month ([3]; IBA 3.0 mg/l): 20.0% | Withering rate (%) For first one month ([3]; IBA 3.0 mg/l): 0.0% | Withering rate (%) For second one month ([3]; IBA 3.0 mg/l): 60.0% | Withering rate (%) For third one month ([3]; IBA 3.0 mg/l): 70.0% | Rooting rate (%) For first one month ([3]; IBA 4.0 mg/l): 0.0% | Rooting rate (%) For second one month ([3]; IBA 4.0 mg/l): 0.0% | Rooting rate (%) For third one month ([3]; IBA 4.0 mg/l): 0.0% | Withering rate (%) For first one month ([3]; IBA 4.0 mg/l): 40.0% | Withering rate (%) For second one month ([3]; IBA 4.0 mg/l): 70.0% | Withering rate (%) For third one month ([3]; IBA 4.0 mg/l): 100.0% | Rooting rate (%) For first one month ([3]; IBA 5.0 mg/l): 0.0% | Rooting rate (%) For second one month ([3]; IBA 5.0 mg/l): 0.0% | Rooting rate (%) For third one month ([3]; IBA 5.0 mg/l): 0.0% | Withering rate (%) For first one month ([3]; IBA 5.0 mg/l): 50.0% | Withering rate (%) For second one month ([3]; IBA 5.0 mg/l): 90.0% | Withering rate (%) For third one month ([3]; IBA 5.0 mg/l): 100.0% | Rooting rate (%) For first one month ([3]; IBA 10.0 mg/l): 0.0% | Rooting rate (%) For second one month ([3]; IBA 10.0 mg/l): 0.0% | Rooting rate (%) For third one month ([3]; IBA 10.0 mg/l): 0.0% | Withering rate (%) For first one month ([3]; IBA 10.0 mg/l): 70.0% | Withering rate (%) For second one month ([3]; IBA 10.0 mg/l): 100.0% | Withering rate (%) For third one month ([3]; IBA 10.0 mg/l): 100.0%
